In patent publication US9493466B2, “Treatment of cancer with TOR kinase inhibitors” (Signal Pharmaceuticals, LLC, priority 2011, dated 2016):
Where two headings read alike, the source gives them in different places.

Assays:
U87MG-Luc cells = experiment: U87MG intracranial glioblastoma model; format: in vivo, Nude mice; details: up to 6 weeks
Description: U87MG Intracranial Glioblastoma Model (Compound 1). An intracranial glioblastoma study was conducted with U87MG cells transfected with luciferase (U87-MG-Luc). Nude mice were inoculated intracranially with U87MG-Luc cells into the brain. Following inoculation of animals, the tumors were allowed to grow for 7 days. On day 7 following tumor cell inoculation, the mice were imaged using Xenogen imaging system. The mice having tumors with an average flux ranging between 6.29×10^7 and 1.59×10^8 photons/sec were pooled together and randomized into various treatment groups. Compound 1 was formulated in 0.5% CMC and 0.25% Tween 80 in water (as a suspension). The animals were orally administered vehicle (CMC-Tween) or Compound 1 once daily (QD) for up to 6 weeks. Doses of Compound 1 ranged between 2.5 and 20 mg/kg. The positive control Temozolomide (10 mg/kg, QD) was administered via intra peritoneal (IP) route. Temozolomide was formulated in 5% N-methylpyrrolidone, 45% PEG400 and 50% saline. The animals were imaged for bioluminescence once a week using Xenogen imaging system and monitored for survival. Statistical analysis was performed using a log-rank test between Compound-treated and vehicle-treated control groups.
U87MG Intracranial Glioblastoma Model (Compound 2). […] The animals were imaged for bioluminescence once a week using Xenogen imaging system and monitored for survival. […]

KMS34 = experiment: Cell proliferation and viability assay for MM lines; format: cell-based; details: KMS34, 5 days, 7AAD FACS
Description: (§1) Cell Proliferation and Viability Assay for MM Lines. Prior to use, cells were washed and maintained in medium for 5 days. Cells were seeded out at a density of 0.3×10^6 cells/mL in a 12-well plate and treated with Compound 1 or Compound 2 for 5 days. 7AAD detection fluorescence-activated cell sorting (FACS) flow cytometry was used in the analysis.

OPM2 = experiment: as above; format: cell-based; details: OPM2, 5 days, 7AAD FACS
Description: as §1

MM1.S = experiment: as above; format: cell-based; details: 5 days, 7AAD FACS
Description: as §1

U266 = experiment: as above; format: cell-based; details: U266, 5 days, 7AAD FACS
Description: as §1

CAG = experiment: as above; format: cell-based; details: 5 days, 7AAD FACS
Description: as §1

RPMI = experiment: as above; format: cell-based; details: 5 days, 7AAD FACS
Description: as §1

LP-1 = experiment: as above; format: cell-based; details: LP-1, 5 days, 7AAD FACS
Description: as §1

DF15 = experiment: as above; format: cell-based; details: DF15, 5 days, 7AAD FACS
Description: as §1

H929 = experiment: as above; format: cell-based; details: H929, 5 days, 7AAD FACS
Description: as §1

NHL cell lines = experiment: Apoptosis assay for NHL lines (panel statement); format: cell-based; details: multiple NHL cell lines in vitro; FIG. 2
Description: Apoptosis Assay for NHL Lines. Prior to testing, cells were grown and expanded in culture flasks to provide sufficient amounts of starting material. Cells were then diluted to their desired densities and added directly to compound-spotted 384-well plates. Cells were allowed to grow for 24 hours in 5% CO2 at 37° C. The apoptotic response was assessed by quantifying the activities of caspase 3 and caspase 7 (Caspase 3/7-Glo) in treated cells and control cells at the 24-hour time point. All data was normalized and represented as a value relative to the DMSO-treated cells. Results were then expressed as CalX, which is the minimum compound concentration required to double the levels of caspase 3/7 relative to those of the DMSO-treated cells during their treatment period.

[1] = Homo sapiens, 120 h, read-out: IC50, Viability
[2] = 120 h, read-out: IC50, Proliferation
[3] = 120 h, read-out: IC50, Viability

## CO[C@H]1CC[C@H](N2C(=O)CNc3ncc(-c4ccc(C(C)(C)O)nc4)nc32)CC1 [Compound 1, 7-(6-(2-hydroxypropan-2-yl)pyridin-3-yl)-1-((1r,4r)-4-methoxycyclohexyl)-3,4-dihydropyrazino-[2,3-b]pyrazin-2(1H)-one]
U87MG-Luc cells; 2.5 to 20 mg/kg QD oral, FIG. 14
  survival: significantly prolonged the life
KMS34; read-out: IC50, Proliferation
  IC50: 100 nM
KMS34; read-out: IC50, Viability
  IC50: 420 nM
OPM2; read-out: IC50, Proliferation
  IC50: 330 nM
OPM2; read-out: IC50, Viability
  IC50: 600 nM
MM1.S; read-out: IC50, Proliferation
  IC50: 440 nM
MM1.S; read-out: IC50, Viability
  IC50: 1010 nM
U266; read-out: IC50, Proliferation
  IC50: 560 nM
CAG; read-out: IC50, Proliferation
  IC50: 800 nM
CAG; read-out: IC50, Viability
  IC50: 2600 nM
RPMI; read-out: IC50, Proliferation
  IC50: 170 nM
RPMI; read-out: IC50, Viability
  IC50: 1100 nM
LP-1; read-out: IC50, Proliferation
  IC50: 220 nM
DF15; read-out: IC50, Proliferation
  IC50: 100 nM
DF15; read-out: IC50, Viability
  IC50: 850 nM
H929; read-out: IC50, Proliferation
  IC50: 190 nM
H929; read-out: IC50, Viability
  IC50: 730 nM
NHL cell lines
  apoptosis induction: induce apoptosis

## CCN1C(=O)CNc2ncc(-c3ccc(-c4nc[nH]n4)nc3C)nc21 [Compound 2, 1-ethyl-7-(2-methyl-6-(1H-1,2,4-triazol-3-yl)pyridin-3-yl)-3,4-dihydropyrazino[2,3-b]pyrazin-2(1H)-one]
U87MG-Luc cells; 0.5 to 5 mg/kg QD oral, FIG. 16
  survival: significantly prolonged the life
KMS34; KMS-34, 120 h, read-out: IC50, Proliferation
  IC50: 70 nM
KMS34; KMS-34, 120 h, read-out: IC50, Viability
  IC50: 120 nM
OPM2; Homo sapiens, OPM-2, 120 h, read-out: IC50, Proliferation
  IC50: 370 nM
OPM2; Homo sapiens, OPM-2, 120 h, read-out: IC50, Viability
  IC50: 510 nM
MM1.S; [1]
  IC50: 850 nM
U266; Homo sapiens, U-266, 120 h, read-out: IC50, Proliferation
  IC50: 320 nM
U266; Homo sapiens, U-266, 120 h, read-out: IC50, Viability
  IC50: 4290 nM
CAG; [2]
  IC50: 410 nM
CAG; [3]
  IC50: 1500 nM
RPMI; [2]
  IC50: 150 nM
RPMI; [3]
  IC50: 450 nM
LP-1; Homo sapiens, 120 h, read-out: IC50, Proliferation
  IC50: 160 nM
LP-1; [1]
  IC50: 830 nM
DF15; [2]
  IC50: 50 nM
DF15; [3]
  IC50: 570 nM
H929; Homo sapiens, NCI-H929, 120 h, read-out: IC50, Proliferation
  IC50: 130 nM
H929; Homo sapiens, NCI-H929, 120 h, read-out: IC50, Viability
  IC50: 400 nM
NHL cell lines
  apoptosis induction: induce apoptosis
